The source of these data is patent US6814966B1, “Methods for treating glaucoma” (Pharmacia Corporation, priority 2000, dated 2004).

In the test the test system is retinal ganglion cells in co-cultures with glial cells. The experiment in a line: TUNEL apoptosis of retinal ganglion cells in co-cultures with glial cells under stress conditions. Particulars: for decrease of rate of positive TUNEL: antibody 10 ug/ml, 1400W 2.5 uM. Type of test: cell-based, rat. The method, then: Retinal ganglion cell cultures. Primary cultures of retinal ganglion cells were derived from newborn rat retinas using a protocol similar to that recently described^70. All experiments were performed in accordance with the ARVO Statement for the Use of Animals in Ophthalmic and Vision Research and were approved by The Animal Studies Committee of Washington University. Five to seven days old Sprague-Dawley rats were anesthetized and their eyes were enucleated. The eyes were rinsed with CO2-independent culture medium (Gibco, Grand Island, N.Y.) and retinas were mechanically dissected under a microscope. To prepare retinal cell suspensions, tissues were dissociated in Eagles's minimum essential medium containing 20 U/ml papain, 1 mM L-cystein 0.5 mM EDTA and DNase (0.005%) (Worthington, Lakewood, N.J.) at 37° C. for 40 minutes. Then, retinas were rinsed in an inhibitor solution containing Eagle's minimum essential medium, ovomucoid (0.2%) (US Biological, Swampscott, Mass.), DNAase (0.04%) and bovine serum albumin (0.1%) (Sigma, St. Louis, Mo.). At the end of treatment period, tissues were triturated through a 1 ml plastic pipette to yield a suspension of single cells. The retinal cells were spun at 400 g for 10 minutes, resuspended in Eagle's minimum essential medium containing bovine serum albumin (0.05%) and incubated in a tissue culture incubator until their immediate use for subsequent separation by immunomagnetic selection^71,72.
Immunomagnetic selection of the retinal ganglion cells was performed using magnetic, 2.8±0.2 um diameter, polystyrene beads coated with biotinylated rat monoclonal antibody against mouse IgG1 (Dynal, Oslo, Norway) in a two step process. In the first step, after washing with phosphate buffered saline solution containing 0.1% bovine serum albumin, 1×10^7 beads/ml were added to monoclonal antibody against macrophage surface antigens (100 ug/ml) (Sigma). After incubation at room temperature on a rotator for 30 minutes, beads were washed using a specially designed magnet (Dynal). […]

Take `CC(=N)NCc1cccc(CN)c1.Cl.Cl` [1400W, N-(3-(aminomethyl)benzyl)acetamidine. dihydrochloride]: the “decrease of rate of positive TUNEL” value by setting is: (co-cultures under elevated hydrostatic pressure) “approximately 35%”; (co-cultures under simulated ischemia) “approximately 50%”. In addition, for the setting “summary statement, simulated ischemia and elevated hydrostatic pressure, stressor not specified”, the “attenuation of retinal ganglion cell apoptosis” value is around 50%.
